Assay results published in patent publication US10703748B2, “Diazanaphthalen-3-yl carboxamides and preparation and use thereof” (Samumed, LLC, priority 2017, dated 2020).

Legend:
[1] = test system: IL-6; test: IL-6 inhibition in LPS-stimulated human peripheral blood mononuclear cells (HTRF); details: Homo sapiens, PBMC; for EC50: 22 h; for inhibition at 10 µM: read-out: percentage in parentheses after EC50 >10
[2] = test system: α-smooth muscle actin (aSMA) positive LL29 cells; test: Inhibition of the fibrotic process: αSMA staining in TGF-β1 treated LL29 fibroblasts from IPF patients; details: Homo sapiens, Fibroblast; for EC50: 96 h; for inhibition at 10 µM: read-out: percentage in parentheses after EC50 >10
[3] = test system: Wnt-responsive Sp5-Luc reporter in SW480 colon carcinoma cells; test: Screening assay for Wnt activity (Sp5-Luc reporter gene assay); details: Homo sapiens; for EC50: SW480; for inhibition at 10 µM: SW480, read-out: percent inhibition at 10 μM
Experimental: The screening assay for Wnt activity is described as follows.
SW480 colon carcinoma cells were transduced with a lentiviral vector expressing luciferase with a human Sp5 promoter consisting of a sequence of eight TCF/LEF binding sites. […] These stably transduced SW480 cells were expanded in cell culture and used for all further screening activities. Each compound was dissolved in DMSO as a 10 mM stock and used to prepare compound source plates. Serial dilution (1:3, 10-point dose-response curves starting from 10 μM) and compound transfer was performed using the ECHO 550 (Labcyte, Sunnyvale, Calif.) into 384-well white solid bottom assay plates (Greiner Bio-One) with appropriate DMSO backfill for a final DMSO concentration of 0.1%. […] Following incubation, 15 μl of BriteLite Plus luminescence reagent (Perkin Elmer) was added to each well of the 384-well assay plates. The plates were placed on an orbital shaker for 2 min and then luminescence was quantified using the Envision (Perkin Elmer) plate reader.

[4] = biological target: GSK3β kinase (Homo sapiens, UniProt P49841); test: GSK3β kinase activity (Ser/Thr 09 peptide Z-lyte FRET assay); format: biochemical; details: recombinant kinase, 46 μM ATP, one hour at room temperature; read-out: EC50
[5] = test system: SW480 colon carcinoma cells; test: Cell viability assay (CellTiter-Glo); details: Homo sapiens; for EC50: SW480, 96 h; for inhibition at 10 µM: SW480, read-out: percent inhibition at 10 μM
[6] = biological target: DYRK1A kinase (Homo sapiens, UniProt Q13627); test: DYRK1A kinase activity (Ser/Thr 18 peptide Z-lyte FRET assay); format: biochemical; details: recombinant DYRK1A, 30 μM ATP, one hour at room temperature;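 further: kinase activity read as coumarin/fluorescein emission ratio after development step, with unphosphorylated and phosphorylated peptide forms setting 0% and 100% controls, values from dose-response curves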

Chain of GSK3β kinase (P49841 whole entry): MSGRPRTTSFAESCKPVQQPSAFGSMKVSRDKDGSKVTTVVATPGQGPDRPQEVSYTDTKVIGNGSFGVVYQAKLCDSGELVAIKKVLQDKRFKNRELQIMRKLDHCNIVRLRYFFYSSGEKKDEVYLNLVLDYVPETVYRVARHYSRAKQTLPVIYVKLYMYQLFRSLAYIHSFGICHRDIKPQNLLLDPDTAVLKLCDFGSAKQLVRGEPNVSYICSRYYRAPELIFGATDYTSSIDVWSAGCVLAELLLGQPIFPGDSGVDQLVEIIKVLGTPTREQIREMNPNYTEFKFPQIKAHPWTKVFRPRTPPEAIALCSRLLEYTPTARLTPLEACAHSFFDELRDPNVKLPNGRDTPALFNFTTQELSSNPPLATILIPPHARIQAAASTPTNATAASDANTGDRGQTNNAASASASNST

Row | Compound | EC50 [1] | EC50 [3] | EC50 [4] | EC50 [5] | EC50 [6] | inhibition at 10 µM [1] | EC50 [2] | inhibition at 10 µM [2] | inhibition at 10 µM [3] | inhibition at 10 µM [5]
1 | CN1CCC(Oc2ccc(C(=O)Nc3ncc4ccc(-c5cnn(C)c5)cc4n3)cc2)CC1 [Compound 1052, N-(7-(1-Methyl-1H-pyrazol-4-yl)quinazolin-2-yl)-4-((1-methylpiperidin-4-yl)oxy)benzamide] | > 10 µM | 3.15 µM | 9.43 µM | 5.37 µM | 0.035 µM | 3.8% | 8.74 µM | – | – | –
2 | CCN(CC)CC(=O)Nc1ncc2ccc(-c3cnn(C)c3CN3CCCCC3)cc2n1 [Compound 1189, 2-(Diethylamino)-N-(7-(1-methyl-5-(piperidin-1-ylmethyl)-1H-pyrazol-4-yl)quinazolin-2-yl)acetamide] | > 10 µM | > 10 µM | 1.69 µM | > 10 µM | 0.186 µM | 7.9% | > 10 µM | 18% | 29.5% | 17.4%
3 | Cn1cc(-c2ccc3cnc(NC(=O)C(C)(C)F)nc3c2)nn1 [Compound 1239, 2-Fluoro-2-methyl-N-(7-(1-methyl-1H-1,2,3-triazol-4-yl)quinazolin-2-yl) propanamide] | > 10 µM | > 10 µM | 0.112 µM | > 10 µM | 0.171 µM | 7.3% | > 10 µM | 13.5% | 47.4% | 17.2%
4 | Cn1cc(-c2ccc3cnc(NC(=O)C4CCN(CC5(C)COC5)CC4)nc3c2)nn1 [Compound 1254, N-(7-(1-Methyl-1H-1,2,3-triazol-4-yl)quinazolin-2-yl)-1-((3-methyloxetan-3-yl)methyl)piperidine-4-carboxamide] | > 10 µM | > 10 µM | 0.069 µM | > 10 µM | 0.104 µM | 3.8% | 6.97 µM | – | 31.7% | 11.2%
5 | Cn1cncc1-c1ccc2cnc(NC(=O)C3CCC(F)(F)CC3)nc2c1 [Compound 1306, 4,4-Difluoro-N-(7-(1-methyl-1H-imidazol-5-yl)quinazolin-2-yl)cyclohexane-1-carboxamide] | 8.81 µM | > 10 µM | 0.377 µM | > 10 µM | 0.391 µM | – | 1.8 µM | – | 42.4% | 43.7%
6 | O=C(Nc1ncc2ccc(-c3cnco3)cc2n1)C1CCN(C(=O)CN2CCCC2)CC1 [Compound 1438, N-(7-(Oxazol-5-yl)quinazolin-2-yl)-1-(2-(pyrrolidin-1-yl)acetyl)piperidine-4-carboxamide] | > 10 µM | > 10 µM | 5.18 µM | > 10 µM | 0.1 µM | 9.6% | > 10 µM | 29.6% | 10% | 14.7%
7 | Cc1ncc(-c2ccc3cnc(NC(=O)[C@H]4C[C@H](N5CCOCC5)C4)nc3c2)o1 [Compound 1462, trans-N-(7-(2-Methyloxazol-5-yl)quinazolin-2-yl)-3-morpholinocyclobutane-1-carboxamide] | > 10 µM | > 10 µM | 0.707 µM | > 10 µM | 0.37 µM | 0% | > 10 µM | 14.5% | 13.6% | 20.9%
8 | Cc1ncc(-c2ccc3cnc(NC(=O)C4CCN(CC(C)(F)F)CC4)nc3c2)o1 [Compound 1471, 1-(2,2-Difluoropropyl)-N-(7-(2-methyloxazol-5-yl)quinazolin-2-yl)piperidine-4-carboxamide] | > 10 µM | > 10 µM | 0.578 µM | > 10 µM | 0.046 µM | 1.8% | > 10 µM | 43.6% | 17.8% | 11.3%
9 | Cc1nnc(-c2ccc3cnc(NC(=O)CN4C5CCC4COC5)nc3c2)s1 [Compound 1634, 2-(3-Oxa-8-azabicyclo[3.2.1]octan-8-yl)-N-(7-(5-methyl-1,3,4-thiadiazol-2-yl)quinazolin-2-yl)acetamide] | > 10 µM | > 10 µM | 0.224 µM | > 10 µM | 0.342 µM | 5.4% | > 10 µM | 18.3% | 16.4% | 13.7%

Second part, led by results:

Row | EC50 [1] | EC50 [3] | EC50 [4] | EC50 [5] | EC50 [6] | Compound | inhibition at 10 µM [1] | EC50 [2] | inhibition at 10 µM [2] | inhibition at 10 µM [3] | inhibition at 10 µM [5]
10 | > 10 µM | > 10 µM | 2.33 µM | > 10 µM | 0.246 µM | Cc1ncc(-c2ccc3cnc(NC(=O)N4CCC(N5CCOCC5)CC4)nc3c2)o1 [Compound 1472, N-(7-(2-Methyloxazol-5-yl)quinazolin-2-yl)-4-morpholinopiperidine-1-carboxamide] | 7.6% | > 10 µM | 33.9% | 1.6% | 16.7%
11 | > 10 µM | 1.51 µM | 0.254 µM | > 10 µM | 0.113 µM | Cc1ncc(-c2ccc3cnc(NC(=O)Cn4ccnc4)nc3c2)o1 [Compound 1495, 2-(1H-Imidazol-1-yl)-N-(7-(2-methyloxazol-5-yl)quinazolin-2-yl)acetamide] | 3.2% | > 10 µM | 48.5% | – | 25.5%
12 | > 10 µM | 1.2 µM | 0.34 µM | 2.21 µM | 0.065 µM | Cc1nnc(-c2ccc3cnc(NC(=O)c4ccnc(N5CCN(C)CC5)c4)nc3c2)s1 [Compound 1656, N-(7-(5-Methyl-1,3,4-thiadiazol-2-yl)quinazolin-2-yl)-2-(4-methylpiperazin-1-yl)isonicotinamide] | 6% | 1.76 µM | – | – | –
13 | > 10 µM | > 10 µM | 2.45 µM | > 10 µM | 0.867 µM | Cn1cc(-c2cnc3cnc(NC(=O)[C@H]4CCCN4)cc3c2)cn1 [Compound 2782, (R)—N-(3-(1-Methyl-1H-pyrazol-4-yl)-1,7-naphthyridin-6-yl)pyrrolidine-2-carboxamide] | 4.3% | 2.4 µM | – | 2.2% | 18.8%
14 | > 10 µM | > 10 µM | 3.47 µM | > 10 µM | 0.513 µM | CC(C(=O)Nc1cc2cc(-c3cnn(C)c3)cnc2cn1)N1CCCCC1 (stereo not shown) [Compound 2791, N-(3-(1-Methyl-1H-pyrazol-4-yl)-1,7-naphthyridin-6-yl)-2-(piperidin-1-yl) propanamide] | 5.3% | 6.13 µM | – | 10.5% | 24.8%
15 | > 10 µM | > 10 µM | > 10 µM | 3.88 µM | 0.049 µM | CN(C)CCNc1cc(C(=O)Nc2cc3cc(-c4cnn(C)c4)cnc3cn2)ccn1 [Compound 2884, 2-((2-(Dimethylamino)ethyl)amino)-N-(3-(1-methyl-1H-pyrazol-4-yl)-1,7-naphthyridin-6-yl)isonicotinamide] | 9.4% | 5.24 µM | – | 44.1% | –
16 | > 10 µM | 3.58 µM | > 10 µM | 3.86 µM | 0.035 µM | CN(C)Cc1ccc(C(=O)Nc2cc3cc(-c4cnn(C)c4)cnc3cn2)cc1 [Compound 2890, 4-((Dimethylamino)methyl)-N-(3-(1-methyl-1H-pyrazol-4-yl)-1,7-naphthyridin-6-yl)benzamide] | 8.6% | > 10 µM | 29.4% | – | –
17 | > 10 µM | > 10 µM | > 10 µM | > 10 µM | 0.039 µM | CN1CCN(Cc2cccc(C(=O)Nc3cc4cc(-c5cnn(C)c5)cnc4cn3)c2)CC1 [Compound 2892, N-(3-(1-Methyl-1H-pyrazol-4-yl)-1,7-naphthyridin-6-yl)-3-((4-methylpiperazin-1-yl)methyl)benzamide] | 16.5% | 3.96 µM | – | 46.9% | 36%
18 | > 10 µM | 2.42 µM | > 10 µM | > 10 µM | 0.036 µM | CN1CCc2ccc(C(=O)Nc3cc4cc(-c5cnn(C)c5)cnc4cn3)cc2C1 [Compound 2922, 2-Methyl-N-(3-(1-methyl-1H-pyrazol-4-yl)-1,7-naphthyridin-6-yl)-1,2,3,4-tetrahydroisoquinoline-7-carboxamide] | 3.8% | > 10 µM | 47.2% | – | 28.8%
19 | > 10 µM | > 10 µM | > 10 µM | > 10 µM | > 10 µM | Cn1cc(-c2cnc3cnc(NC(=O)c4ccc5nccnc5c4)cc3c2)cn1 [Compound 2936, N-(3-(1-Methyl-1H-pyrazol-4-yl)-1,7-naphthyridin-6-yl)quinoxaline-6-carboxamide] | 8.3% | > 10 µM | 21.6% | 11.9% | 17.8%
